{
  "source": "ChEMBL document CHEMBL1201862",
  "about": "“PubChem BioAssay data set” (2004)",
  "assay_in_all_cases": "growth of human tumour cells (NCI), 48 h",
  "key": {"786-0": {"system": "786-0"}, "A498": {"system": "A498"}, "A549": {"system": "A549"}, "ACHN": {"system": "ACHN"}, "BT-549": {"system": "BT-549"}, "CAKI-1": {"system": "CAKI-1"}, "CCRF-CEM": {"system": "CCRF-CEM"}, "COLO 205": {"system": "COLO 205"}, "DU-145": {"system": "DU-145"}, "EKVX": {"system": "EKVX"}, "HCC 2998": {"system": "HCC 2998"}, "HCT-116": {"system": "HCT-116"}, "HCT-15": {"system": "HCT-15"}, "HL-60": {"system": "HL-60"}, "HOP-62": {"system": "HOP-62"}, "HOP-92": {"system": "HOP-92"}, "IGROV-1": {"system": "IGROV-1"}, "K562": {"system": "K562"}, "KM12": {"system": "KM12"}, "LOX IMVI": {"system": "LOX IMVI"}, "M14": {"system": "M14"}, "MCF7": {"system": "MCF7"}, "MDA-MB-231": {"system": "MDA-MB-231"}, "MDA-MB-435": {"system": "MDA-MB-435"}, "MDA-N": {"system": "MDA-N"}, "MOLT-4": {"system": "MOLT-4"}, "Malme-3M": {"system": "Malme-3M"}, "NCI-H226": {"system": "NCI-H226"}, "NCI-H23": {"system": "NCI-H23"}, "NCI-H460": {"system": "NCI-H460"}, "NCI-H522": {"system": "NCI-H522"}, "NCI/ADR-RES": {"system": "NCI/ADR-RES"}, "OVCAR-3": {"system": "OVCAR-3"}, "OVCAR-4": {"system": "OVCAR-4"}, "OVCAR-5": {"system": "OVCAR-5"}, "PC-3": {"system": "PC-3"}, "RPMI-8226": {"system": "RPMI-8226"}, "RXF 393": {"system": "RXF 393"}, "SF-295": {"system": "SF-295"}, "SF-539": {"system": "SF-539"}, "SK-MEL-28": {"system": "SK-MEL-28"}, "SK-MEL-2": {"system": "SK-MEL-2"}, "SK-MEL-5": {"system": "SK-MEL-5"}, "SN12C": {"system": "SN12C"}, "SNB-19": {"system": "SNB-19"}, "SR": {"system": "SR"}, "SW-620": {"system": "SW-620"}, "T47D": {"system": "T47D"}, "TK-10": {"system": "TK-10"}, "U-251": {"system": "U-251"}, "UACC-257": {"system": "UACC-257"}, "UACC-62": {"system": "UACC-62"}, "UO-31": {"system": "UO-31"}},
  "note": "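Interpolation was linear, between the two tested concentrations surrounding the appropriate level; five concentrations were tested over 48 hours in 96-well plates. The concentration for 50% growth inhibition is given as GI50.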 Calls of active or inactive are those of the source. Cut-off read from the data, not from the text of the source: active = GI50 up to about 1.1 µM and inactive = higher.",
  "data": [
    {"compound": "CCOC(=O)c1sc2nc(SC)nc(Nc3ccc4c(c3)OCO4)c2c1N", "values": [
      {"measurement": "GI50", "setting": "786-0", "value": "21.6 µM (inactive)"},
      {"measurement": "GI50", "setting": "A498", "value": "28.4 µM (inactive)"},
      {"measurement": "GI50", "setting": "A549", "value": "68.9 µM (inactive)"},
      {"measurement": "GI50", "setting": "ACHN", "value": "19.9 µM (inactive)"},
      {"measurement": "GI50", "setting": "BT-549", "value": "33.7 µM (inactive)"},
      {"measurement": "GI50", "setting": "CAKI-1", "value": "> 100 µM (inactive)"},
      {"measurement": "GI50", "setting": "CCRF-CEM", "value": "50.7 µM (inactive)"},
      {"measurement": "GI50", "setting": "COLO 205", "value": "> 100 µM (inactive)"},
      {"measurement": "GI50", "setting": "DU-145", "value": "35.8 µM (inactive)"},
      {"measurement": "GI50", "setting": "EKVX", "value": "31.9 µM (inactive)"},
      {"measurement": "GI50", "setting": "HCC 2998", "value": "> 100 µM (inactive)"},
      {"measurement": "GI50", "setting": "HCT-116", "value": "> 100 µM (inactive)"},
      {"measurement": "GI50", "setting": "HCT-15", "value": 0.706, "unit": "µM"},
      {"measurement": "GI50", "setting": "HL-60", "value": "> 100 µM (inactive)"},
      {"measurement": "GI50", "setting": "HOP-62", "value": "28.8 µM (inactive)"},
      {"measurement": "GI50", "setting": "HOP-92", "value": "17.4 µM (inactive)"},
      {"measurement": "GI50", "setting": "IGROV-1", "value": "> 100 µM (inactive)"},
      {"measurement": "GI50", "setting": "K562", "value": "81.1 µM (inactive)"},
      {"measurement": "GI50", "setting": "KM12", "value": "> 100 µM (inactive)"},
      {"measurement": "GI50", "setting": "LOX IMVI", "value": "> 100 µM (inactive)"},
      {"measurement": "GI50", "setting": "M14", "value": "41.9 µM (inactive)"},
      {"measurement": "GI50", "setting": "MCF7", "value": "30.6 µM (inactive)"},
      {"measurement": "GI50", "setting": "MDA-MB-231", "value": "26 µM (inactive)"},
      {"measurement": "GI50", "setting": "MDA-MB-435", "value": "> 100 µM (inactive)"},
      {"measurement": "GI50", "setting": "MDA-N", "value": "> 100 µM (inactive)"},
      {"measurement": "GI50", "setting": "MOLT-4", "value": "> 100 µM (inactive)"},
      {"measurement": "GI50", "setting": "Malme-3M", "value": "29.6 µM (inactive)"},
      {"measurement": "GI50", "setting": "NCI-H226", "value": "71.3 µM (inactive)"},
      {"measurement": "GI50", "setting": "NCI-H23", "value": "53 µM (inactive)"},
      {"measurement": "GI50", "setting": "NCI-H460", "value": "> 100 µM (inactive)"},
      {"measurement": "GI50", "setting": "NCI-H522", "value": "46.7 µM (inactive)"},
      {"measurement": "GI50", "setting": "NCI/ADR-RES", "value": "64.6 µM (inactive)"},
      {"measurement": "GI50", "setting": "OVCAR-3", "value": "37.4 µM (inactive)"},
      {"measurement": "GI50", "setting": "OVCAR-4", "value": "37.7 µM (inactive)"},
      {"measurement": "GI50", "setting": "OVCAR-5", "value": "> 100 µM (inactive)"},
      {"measurement": "GI50", "setting": "PC-3", "value": "37.8 µM (inactive)"},
      {"measurement": "GI50", "setting": "RPMI-8226", "value": "53.8 µM (inactive)"},
      {"measurement": "GI50", "setting": "RXF 393", "value": "10.9 µM (inactive)"},
      {"measurement": "GI50", "setting": "SF-295", "value": "16 µM (inactive)"},
      {"measurement": "GI50", "setting": "SF-539", "value": "32.9 µM (inactive)"},
      {"measurement": "GI50", "setting": "SK-MEL-28", "value": "1.91 µM (inactive)"},
      {"measurement": "GI50", "setting": "SK-MEL-2", "value": "68.4 µM (inactive)"},
      {"measurement": "GI50", "setting": "SK-MEL-5", "value": "44.1 µM (inactive)"},
      {"measurement": "GI50", "setting": "SN12C", "value": "59 µM (inactive)"},
      {"measurement": "GI50", "setting": "SNB-19", "value": "54.7 µM (inactive)"},
      {"measurement": "GI50", "setting": "SR", "value": "> 100 µM (inactive)"},
      {"measurement": "GI50", "setting": "SW-620", "value": "4.34 µM (inactive)"},
      {"measurement": "GI50", "setting": "T47D", "value": "39.5 µM (inactive)"},
      {"measurement": "GI50", "setting": "TK-10", "value": "30.9 µM (inactive)"},
      {"measurement": "GI50", "setting": "U-251", "value": "32.9 µM (inactive)"},
      {"measurement": "GI50", "setting": "UACC-257", "value": "> 100 µM (inactive)"},
      {"measurement": "GI50", "setting": "UACC-62", "value": "25.1 µM (inactive)"},
      {"measurement": "GI50", "setting": "UO-31", "value": "71.3 µM (inactive)"}
    ]}
  ]
}
